Converted amounts (≈) assume the structure as drawn.
Tests used:
[1] = Metabolic stability in human liver microsomes assessed as compound remaining after 30 mins; assay type: ADME, Microsome; details: read-out: Stability
[2] = Kinetic solubility of the compound; assay type: physicochemical; details: read-out: Kinetic_solubility
[3] = Metabolic stability in mouse liver microsomes assessed as compound remaining after 30 mins; assay type: ADME, Microsome; details: read-out: Stability
[4] = molecular target: T1, Isocitrate dehydrogenase [NADP] cytoplasmic (Homo sapiens, UniProt O75874, R132C); experiment: Inhibition of human Myc-DDK-tagged IDH1 R132C mutant assessed as reduction in NADPH consumption pre-incubated for 15 mins followed by alpha-ketoglutarate substrate and NADPH addition after 45 mins by diaphorase and resazurin dye based assay
[5] = molecular target: T1, Isocitrate dehydrogenase [NADP] cytoplasmic; experiment: Inhibition of IDH1 R132C mutant in human HCT116 cells assessed as reduction in 2-HG levels after 24 hrs by RapidFire high-throughput mass spectrometry assay; assay type: cell-based
[6] = Metabolic stability in rat liver microsomes assessed as compound remaining after 30 mins; assay type: ADME, Microsome; details: read-out: Stability
[7] = Octanol/aqueous buffer partition coefficient, log D of the compound at pH 7.4; assay type: physicochemical

T1 sequence (O75874 2-414 R132C limits assumed): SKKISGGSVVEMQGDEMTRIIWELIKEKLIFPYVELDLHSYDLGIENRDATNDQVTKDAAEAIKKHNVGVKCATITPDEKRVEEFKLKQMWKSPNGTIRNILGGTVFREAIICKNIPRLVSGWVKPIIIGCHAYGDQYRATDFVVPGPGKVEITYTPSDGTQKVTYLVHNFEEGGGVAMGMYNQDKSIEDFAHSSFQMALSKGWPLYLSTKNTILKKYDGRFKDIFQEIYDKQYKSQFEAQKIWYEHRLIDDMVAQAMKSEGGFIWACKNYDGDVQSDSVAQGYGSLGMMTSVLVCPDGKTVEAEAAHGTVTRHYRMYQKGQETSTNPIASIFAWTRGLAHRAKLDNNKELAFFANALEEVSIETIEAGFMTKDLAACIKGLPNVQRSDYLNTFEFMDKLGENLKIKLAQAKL

Compound	remaining at 0.5 h [1] [%]	solubility kinetic [2] [µM]	remaining at 0.5 h [3] [%]	IC50 [4] [nM]	IC50 [5] [nM]	remaining at 0.5 h [6] [%]	logD [7]
N#Cc1ccc(NCc2cc3cc(Cl)ccc3[nH]c2=O)cc1C(F)(F)F	100	< 0.1	100	–	–	–	–
COc1nc(N[C@@H](C)c2cc3cc(Cl)c(F)cc3[nH]c2=O)ncc1C#N	89	1.2 (≈ 0.449 µg/mL)	–	184	259	100	–
COc1nc(N[C@@H](C)c2cc3cc(Cl)c(OCC4CC4)cc3[nH]c2=O)ncc1C#N	100	< 0.1	–	53	54	100	–
COc1cc(NCc2cc3cc(Cl)c(OCCN4CCCC4=O)cc3[nH]c2=O)ccc1C#N	2.5	0.53 (≈ 0.247 µg/mL)	14.3	2670	–	–	–
COc1nc(N[C@@H](C)c2cc3cc(Cl)ccc3[nH]c2=O)ccc1C#N	82	0.08 (≈ 0.0284 µg/mL)	–	190	92	–	3.47
COc1cc(NCc2cc3cc(Cl)ccc3n(C)c2=O)ccc1-n1cnnn1	63.7	< 0.01	22	–	–	–	–
COc1cc(NCc2cc3cc(Cl)c(OCC4CCCCN4C)cc3[nH]c2=O)ccc1C#N (configuration not stated)	0	1.35 (≈ 0.63 µg/mL)	10.7	1280	–	–	–
COc1cc(N[C@@H](C)c2cc3cc(Cl)ccc3[nH]c2=O)ncc1C#N	100	15.6 (≈ 5.53 µg/mL)	100	–	–	–	3.38
COc1cc(NCc2cc3cc(Cl)c(OC4CCN(C)CC4)cc3[nH]c2=O)ccc1C#N	4.3	0.41 (≈ 0.186 µg/mL)	78.8	5100	–	–	–
Cc1nc(NC2(c3cc4cc(Cl)ccc4[nH]c3=O)CC2)ccc1C#N	91	< 0.1	77	–	–	–	–
COc1nc(N[C@@H](C)c2cc3cc(Cl)c(C4CC4)cc3[nH]c2=O)ncc1C#N	93	0.4 (≈ 0.158 µg/mL)	–	305	195	68	–
COc1cc(NCc2cc3cc(C)c(C)cc3[nH]c2=O)ccc1-n1cnnn1	17.6	0.04 (≈ 0.0151 µg/mL)	27.9	–	–	–	–
N#Cc1ccc(NCc2cc3cc(Cl)ccc3[nH]c2=O)cc1F	100	< 0.1	49	–	–	–	–
COc1nc(N[C@@H](C)c2cc3cc(Cl)c(OCc4ccccn4)cc3[nH]c2=O)ncc1C#N	97	1.5 (≈ 0.694 µg/mL)	–	43	22	77	–
COc1cc(NCc2cc3cc(Cl)c(OC[C@@H]4CCCN4C)cc3[nH]c2=O)ccc1C#N	6.3	0.72 (≈ 0.326 µg/mL)	48.8	5870	–	–	–
COc1cc(NCc2cc3cc(Cl)c(OCCN4CCOCC4)cc3[nH]c2=O)ccc1C#N	1.1	0.385 (≈ 0.181 µg/mL)	13.1	932	–	–	–
COc1nc(C#N)ccc1N[C@@H](C)c1cc2cc(Cl)ccc2[nH]c1=O	100	4.8 (≈ 1.7 µg/mL)	60	1020	338	–	2.5
Cc1nc(NC(C)c2cc3cc(Cl)ccc3[nH]c2=O)ccc1C#N (racemic)	100	12.2 (≈ 4.13 µg/mL)	96	606	–	–	–
COc1nc(N[C@@H](C)c2cc3cc(Cl)c(OC(C)C)cc3[nH]c2=O)ncc1C#N	100	0.43 (≈ 0.178 µg/mL)	–	26	104	90	–
Cc1nc(N[C@@H](C)c2cc3cc(Cl)ccc3[nH]c2=O)ccc1C#N	98	5.7 (≈ 1.93 µg/mL)	94	183	269	–	3.74
COc1cc(NCc2cc3cc(Cl)cc(OCCN4CCOCC4)c3[nH]c2=O)ccc1C#N	0	< 0.1	2.4	3710	–	–	–
Cc1nc(N[C@H](C)c2cc3cc(Cl)ccc3[nH]c2=O)ccc1C#N	100	8 (≈ 2.71 µg/mL)	89	–	–	–	–
COc1cc(NCc2cc3ccc(C)cc3[nH]c2=O)ccc1-n1cnnn1	9.6	< 0.01	17.8	–	–	–	–
COc1cc(NCc2cc3ccccc3[nH]c2=O)ccc1-n1cnnn1	88	0.93 (≈ 0.324 µg/mL)	69.4	–	–	–	–

Results, then the molecule that gave them:

remaining at 0.5 h [1] [%]	solubility kinetic [2] [µM]	remaining at 0.5 h [3] [%]	IC50 [4] [nM]	IC50 [5] [nM]	remaining at 0.5 h [6] [%]	logD [7]	Compound
100	32.5 (≈ 12.8 µg/mL)	81	–	–	–	–	COc1cc(NCc2cc3cc(Cl)ccc3[nH]c2=O)ccc1S(C)(=O)=O
81	< 0.1	67	–	–	–	–	Cc1nc(NC(C)(C)c2cc3cc(Cl)ccc3[nH]c2=O)ccc1C#N
1	< 0.1	94.9	667	–	–	–	COc1cc2[nH]c(=O)c(CNc3ccc(C#N)c(OC)c3)cc2cc1Cl
72	< 0.1	72	–	–	–	–	N#Cc1ccc(NCc2cc3cc(Cl)ccc3[nH]c2=O)cc1OC(F)(F)F
6	< 0.1	3.9	–	–	–	–	COc1cc(NCc2cc3cc(C(C)(C)C)ccc3[nH]c2=O)ccc1C#N
30	< 0.1	73.4	225	–	–	–	COc1cc(NCc2cc3cc(Cl)c(OCc4ccccn4)cc3[nH]c2=O)ccc1C#N
93.9	< 0.01	89.9	–	–	–	–	COc1cc(NCc2cc3cc(Cl)ccc3[nH]c2=O)ccc1-n1cnnn1
21.6	0.67 (≈ 0.225 µg/mL)	10.5	–	–	–	–	COc1ccc2[nH]c(=O)c(CNc3ccc(C#N)c(OC)c3)cc2c1
35	6.13 (≈ 1.87 µg/mL)	4.6	–	–	–	–	COc1cc(NCc2cc3ccccc3[nH]c2=O)ccc1C#N
80	< 0.1	59	–	–	–	–	COc1cc(NCc2cc3cc(Cl)ccc3[nH]c2=O)cc(OC)c1C#N
53	< 0.1	3.4	88600	–	–	–	COc1cc(NCc2cc3cc(Cl)cc(OC)c3[nH]c2=O)ccc1C#N
76	< 0.1	89	–	–	–	–	COc1cc(NCc2cc3cc(C(F)(F)F)ccc3[nH]c2=O)ccc1C#N
–	–	–	3480	–	–	–	COc1cc(NCc2cc3cc(Cl)cc(OCc4ccccn4)c3[nH]c2=O)ccc1C#N
–	1 (≈ 0.427 µg/mL)	–	6250	–	–	–	COc1cc(NCc2cc3cc(Cl)c(OCCN(C)C)cc3[nH]c2=O)ccc1C#N
78	< 0.1	29	–	–	–	–	CCOc1cc(NCc2cc3cc(Cl)ccc3[nH]c2=O)ccc1C#N
100	1.2 (≈ 0.44 µg/mL)	85	–	–	–	–	Cc1nnnn1-c1ccc(NCc2cc3cc(Cl)ccc3[nH]c2=O)cc1

remaining at 0.5 h [1] [%]	solubility kinetic [2] [µM]	remaining at 0.5 h [3] [%]	IC50 [4] [nM]	IC50 [5] [nM]	remaining at 0.5 h [6] [%]	logD [7]	Compound
75	4.1 (≈ 1.45 µg/mL)	71	111	213	–	3.67	COc1cc(N[C@@H](C)c2cc3cc(Cl)ccc3[nH]c2=O)ccc1C#N
94	< 0.1	100	–	–	–	–	N#Cc1ccc(NCc2cc3cc(Cl)ccc3[nH]c2=O)nc1C(F)(F)F
99	0.8 (≈ 0.26 µg/mL)	75	–	–	–	–	Cc1cc(NCc2cc3cc(Cl)ccc3[nH]c2=O)ncc1C#N
75	< 0.1	49	–	–	–	–	Cc1cc(NCc2cc3cc(Cl)ccc3[nH]c2=O)ccc1C#N
81	3.32 (≈ 1.07 µg/mL)	46	–	–	–	–	COc1cc(NCc2cc3cc(F)ccc3[nH]c2=O)ccc1C#N
65	0.21 (≈ 0.065 µg/mL)	53	–	–	–	–	N#Cc1ccc(NCc2cc3cc(Cl)ccc3[nH]c2=O)cc1
91	0.42 (≈ 0.131 µg/mL)	75	–	–	–	–	N#Cc1ccc(NCc2cc3cc(Cl)ccc3[nH]c2=O)nc1
82	–	57	–	–	–	–	O=c1[nH]c2ccc(Cl)cc2cc1CNc1ccc(-c2csnn2)cc1
75	20.9 (≈ 6.81 µg/mL)	85	–	–	–	–	N#Cc1ccc(NCc2cc3cc(Cl)ccc3[nH]c2=O)cc1O
76	0.88 (≈ 0.264 µg/mL)	0.6	–	–	–	–	Cc1ccnc(NCc2cc3cc(Cl)ccc3[nH]c2=O)c1
32.7	< 0.01	52.7	317	–	–	–	COc1cc(NCc2cc3cc(Cl)c(OCc4cc(C)n(C)n4)cc3[nH]c2=O)ccc1C#N
79	< 0.1	2.1	–	–	–	–	COc1cc(C#N)ccc1NCc1cc2cc(Cl)ccc2[nH]c1=O
1.2	1.33 (≈ 0.425 µg/mL)	0.49	–	–	–	–	COc1cc(NCc2cc3cc(C)ccc3[nH]c2=O)ccc1C#N
89	0.18 (≈ 0.0692 µg/mL)	39	–	–	–	–	COc1cc(NCc2cc3cc(Br)ccc3[nH]c2=O)ccc1C#N
98	1.57 (≈ 0.551 µg/mL)	93	–	–	–	–	O=c1[nH]c2ccc(Cl)cc2cc1CNc1ccc(-n2ccnc2)cc1
30.8	< 0.01	42.3	–	–	–	–	COc1cc(NCc2cc3cc(C)ccc3[nH]c2=O)ccc1-n1cnnn1
